Measurements from ChEMBL document CHEMBL1201862, “PubChem BioAssay data set” (2004).
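Five compound concentrations were applied to cells in 96-well plates for 48 hours; endpoints were derived by simple linear interpolation of the resulting dose-response curve. Here, GI50 denotes the concentration required for 50% inhibition of growth.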 Activity calls are given as the source filed them. Rule as the data show it: active = GI50 up to about 1.1 µM and inactive = higher.

Legend:
Experiment in all cases: inhibition of tumour cell growth, NCI panel, 48 h
A498 = system: A498
IGROV-1 = system: IGROV-1
BT-549 = system: BT-549
OVCAR-4 = system: OVCAR-4
OVCAR-5 = system: OVCAR-5
Hs-578T = system: Hs-578T
LOX IMVI = system: LOX IMVI
OVCAR-8 = system: OVCAR-8
NCI-H23 = system: NCI-H23
Malme-3M = system: Malme-3M
RXF 393 = system: RXF 393
UACC-62 = system: UACC-62
HOP-92 = system: HOP-92
NCI-H226 = system: NCI-H226
SK-MEL-5 = system: SK-MEL-5
NCI/ADR-RES = system: NCI/ADR-RES
SW-620 = system: SW-620
COLO 205 = system: COLO 205
SK-OV-3 = system: SK-OV-3

| Compound | GI50 (A498) | GI50 (IGROV-1) | GI50 (BT-549) | GI50 (OVCAR-4) | GI50 (OVCAR-5) | GI50 (Hs-578T) | GI50 (LOX IMVI) | GI50 (OVCAR-8) | GI50 (NCI-H23) | GI50 (Malme-3M) | GI50 (RXF 393) | GI50 (UACC-62) | GI50 (HOP-92) | GI50 (NCI-H226) | GI50 (SK-MEL-5) | GI50 (NCI/ADR-RES) | GI50 (SW-620) | GI50 (COLO 205) | GI50 (SK-OV-3) |
| --- | --- | --- | --- | --- | --- | --- | --- | --- | --- | --- | --- | --- | --- | --- | --- | --- | --- | --- | --- |
| Cc1cc(OCC(=O)O)c(Cl)cc1Cl | > 100 µM (inactive) | > 100 µM (inactive) | > 100 µM (inactive) | > 100 µM (inactive) | > 100 µM (inactive) | > 100 µM (inactive) | > 100 µM (inactive) | > 100 µM (inactive) | > 100 µM (inactive) | > 100 µM (inactive) | > 100 µM (inactive) | > 100 µM (inactive) | > 100 µM (inactive) | > 100 µM (inactive) | > 100 µM (inactive) | > 100 µM (inactive) | > 100 µM (inactive) | – | – |
| Cc1cc([N+](=O)[O-])c(C)c(Br)c1C | > 100 µM (inactive) | > 100 µM (inactive) | > 100 µM (inactive) | > 100 µM (inactive) | > 100 µM (inactive) | 42.8 µM (inactive) | – | > 100 µM (inactive) | > 100 µM (inactive) | > 100 µM (inactive) | 60.5 µM (inactive) | > 100 µM (inactive) | 62.2 µM (inactive) | > 100 µM (inactive) | > 100 µM (inactive) | > 100 µM (inactive) | > 100 µM (inactive) | > 100 µM (inactive) | > 100 µM (inactive) |
| C/C(=N\Nc1nc2ccccc2s1)c1ccc2ccccc2n1 | > 100 µM (inactive) | 0.402 µM (active) | > 100 µM (inactive) | 11.2 µM (inactive) | 91 µM (inactive) | 84.1 µM (inactive) | > 100 µM (inactive) | > 100 µM (inactive) | > 100 µM (inactive) | 58.6 µM (inactive) | 26.4 µM (inactive) | > 100 µM (inactive) | – | – | 30.2 µM (inactive) | > 100 µM (inactive) | > 100 µM (inactive) | 75.7 µM (inactive) | > 100 µM (inactive) |
| COc1ccc(-c2csc(Cc3nc4c(Br)cc(Br)cc4c(=O)n3-c3ccc(OC)cc3)n2)cc1 | 45.3 µM (inactive) | 73.3 µM (inactive) | > 100 µM (inactive) | > 100 µM (inactive) | 56.4 µM (inactive) | > 100 µM (inactive) | > 100 µM (inactive) | > 100 µM (inactive) | 96.2 µM (inactive) | – | > 100 µM (inactive) | 53.3 µM (inactive) | > 100 µM (inactive) | > 100 µM (inactive) | 20.3 µM (inactive) | 50.9 µM (inactive) | 67 µM (inactive) | 34.8 µM (inactive) | 51.8 µM (inactive) |
| O=C(Cn1c2c(c3ccccc31)CCCC2)N1CCOCC1 | > 100 µM (inactive) | > 100 µM (inactive) | > 100 µM (inactive) | 44.4 µM (inactive) | 87.3 µM (inactive) | 35.2 µM (inactive) | > 100 µM (inactive) | > 100 µM (inactive) | > 100 µM (inactive) | > 100 µM (inactive) | – | > 100 µM (inactive) | > 100 µM (inactive) | – | > 100 µM (inactive) | > 100 µM (inactive) | > 100 µM (inactive) | > 100 µM (inactive) | > 100 µM (inactive) |
| O=C1Cc2c([nH]c3ccccc23)C2(CC3CCCCN13)OCCO2 (stereo unspecified) | > 100 µM (inactive) | 45.2 µM (inactive) | > 100 µM (inactive) | > 100 µM (inactive) | > 100 µM (inactive) | 89.9 µM (inactive) | – | > 100 µM (inactive) | > 100 µM (inactive) | 62.2 µM (inactive) | 29.2 µM (inactive) | 76.9 µM (inactive) | 34.2 µM (inactive) | > 100 µM (inactive) | > 100 µM (inactive) | > 100 µM (inactive) | > 100 µM (inactive) | > 100 µM (inactive) | > 100 µM (inactive) |
| N#CC1=C(S)N(C2OC(CO)C(O)C(O)C2O)C(c2ccccc2)=CC1c1ccco1 (stereo unspecified) | 71.6 µM (inactive) | > 100 µM (inactive) | > 100 µM (inactive) | > 100 µM (inactive) | > 100 µM (inactive) | 56.5 µM (inactive) | 23.2 µM (inactive) | 40.4 µM (inactive) | 59 µM (inactive) | 81.7 µM (inactive) | 44 µM (inactive) | 16.3 µM (inactive) | 32.6 µM (inactive) | > 100 µM (inactive) | 26.9 µM (inactive) | > 100 µM (inactive) | – | > 10 µM (inactive) | – |
| CC(=O)O[C@H]1CCC2[C@@H]3CCC4Cc5nc6c(nc5C[C@]4(C)C3CC[C@@]21C)CC1CC[C@@H]2C(CC[C@@]3(C)C2CC[C@@H]3C(C)CCCC(C)C)[C@@]1(C)C6 (stereo partly specified) | – | > 100 µM (inactive) | > 100 µM (inactive) | > 100 µM (inactive) | > 100 µM (inactive) | > 100 µM (inactive) | > 100 µM (inactive) | > 100 µM (inactive) | > 100 µM (inactive) | > 100 µM (inactive) | > 100 µM (inactive) | > 100 µM (inactive) | > 100 µM (inactive) | > 100 µM (inactive) | > 100 µM (inactive) | > 100 µM (inactive) | > 100 µM (inactive) | > 100 µM (inactive) | > 100 µM (inactive) |
| CCOC(=O)Nn1cnnc1Cc1ccccc1 | > 100 µM (inactive) | > 100 µM (inactive) | > 100 µM (inactive) | > 100 µM (inactive) | > 100 µM (inactive) | 20 µM (inactive) | > 100 µM (inactive) | > 100 µM (inactive) | > 100 µM (inactive) | > 100 µM (inactive) | – | > 100 µM (inactive) | > 100 µM (inactive) | > 100 µM (inactive) | > 100 µM (inactive) | > 100 µM (inactive) | > 100 µM (inactive) | > 100 µM (inactive) | > 100 µM (inactive) |
| O=c1c(-c2ccccc2Cl)coc2cc(F)ccc12 | 7.67 µM (inactive) | 6.07 µM (inactive) | 14.9 µM (inactive) | > 100 µM (inactive) | 27.1 µM (inactive) | 28.4 µM (inactive) | 13.2 µM (inactive) | 33.7 µM (inactive) | 37.3 µM (inactive) | – | 22.1 µM (inactive) | 18.2 µM (inactive) | 18.6 µM (inactive) | 23.4 µM (inactive) | 27.3 µM (inactive) | 19.5 µM (inactive) | 30.6 µM (inactive) | 44.7 µM (inactive) | 45.2 µM (inactive) |
| CC(=O)OCC1OC(n2c3c(cc(C#N)c2=O)CCCCCC3)C(OC(C)=O)C(OC(C)=O)C1OC(C)=O (stereo unspecified) | > 100 µM (inactive) | > 100 µM (inactive) | > 100 µM (inactive) | > 100 µM (inactive) | > 100 µM (inactive) | > 100 µM (inactive) | > 100 µM (inactive) | > 100 µM (inactive) | > 100 µM (inactive) | > 100 µM (inactive) | > 100 µM (inactive) | > 100 µM (inactive) | > 100 µM (inactive) | > 100 µM (inactive) | > 100 µM (inactive) | > 100 µM (inactive) | – | > 100 µM (inactive) | – |
| NC(=O)c1cc2ccccc2o/c1=N/O | – | 66.1 µM (inactive) | > 100 µM (inactive) | – | – | 26.2 µM (inactive) | > 100 µM (inactive) | > 100 µM (inactive) | > 100 µM (inactive) | – | > 100 µM (inactive) | 35.8 µM (inactive) | > 100 µM (inactive) | > 100 µM (inactive) | > 100 µM (inactive) | > 100 µM (inactive) | > 100 µM (inactive) | > 100 µM (inactive) | > 100 µM (inactive) |
| CC(=O)N1N=C(c2ccc3ccccc3c2O)CC1C(=O)c1ccco1 (stereo unspecified) | 29.7 µM (inactive) | 12.7 µM (inactive) | 30.3 µM (inactive) | 17.5 µM (inactive) | 28.6 µM (inactive) | 21.8 µM (inactive) | – | 25.5 µM (inactive) | 27.9 µM (inactive) | 23.2 µM (inactive) | 32.4 µM (inactive) | 17 µM (inactive) | 16.6 µM (inactive) | 33.7 µM (inactive) | 25 µM (inactive) | 18.1 µM (inactive) | 33.3 µM (inactive) | 25.8 µM (inactive) | 36.1 µM (inactive) |
| C=CC1(CC[C@]2(c3ccc(OC)c(OC)c3)C=[N+]([O-])O[C@H](O[C@@H]3CCCC[C@H]3C(C)(C)c3ccccc3)C2)OCC(C)(C)CO1 | > 45 µM (inactive) | 6.82 µM (inactive) | 21 µM (inactive) | 11.3 µM (inactive) | 16.4 µM (inactive) | – | 10.5 µM (inactive) | 7.64 µM (inactive) | 16.2 µM (inactive) | 7.26 µM (inactive) | 12.4 µM (inactive) | 14 µM (inactive) | 13.5 µM (inactive) | 19.9 µM (inactive) | 14.7 µM (inactive) | 10.7 µM (inactive) | 22.5 µM (inactive) | 16.9 µM (inactive) | > 44.1 µM (inactive) |
| Cc1ccc2c(c1)NC(=O)CC(c1ccccc1)=N2 | > 100 µM (inactive) | > 100 µM (inactive) | > 100 µM (inactive) | > 100 µM (inactive) | > 100 µM (inactive) | > 100 µM (inactive) | > 100 µM (inactive) | > 100 µM (inactive) | > 100 µM (inactive) | > 100 µM (inactive) | – | > 100 µM (inactive) | > 100 µM (inactive) | > 100 µM (inactive) | 40 µM (inactive) | 77.4 µM (inactive) | > 100 µM (inactive) | – | > 100 µM (inactive) |
